Key:
HSP27 [1] = target: T1, HSP27 (Homo sapiens, UniProt P04792); assay: Bio-layer interferometry binding to HSP27; conditions: wet-chemical experiments
Text: Bio-layer interferometry is a technique for detecting biomolecular interactions. It is an analytical technique that measures the optical interference of white light which is reflected by two surfaces: in each case, one surface consists of a layer of the immobilized target protein on the tip of the biosensor and one is an internal reference surface. The binding of ligands to the target protein alters the interference pattern and can be measured in real time.
For the measurements, an instrument of the ForteBio Octet Red 384 brand was used. The target protein HSP27 was biotinylated and bound to the appropriate sensors (SSA). […]
For measurements by bio-layer interferometry, biotinylated HSP27 protein was first bound to Super-Streptavidin sensors (SSA, Fortebio). […] In the case of a specific binding to HSP27 of the analyte to be measured, the loaded HSP27 sensor generates a stronger signal (response) than the concurrent reference sensor. After the “baseline” has been established by incubation with the reaction buffer (PBST 0.1% Tween 20 plus 3% DMSO), first the association and then the dissociation of the respective analyte is measured in real time. The analytes were measured in increasing concentrations in each case: 1.23-3.7-11.11-33.33-100-300 μM/l.

RPMI-8226 cells = assay: Development of resistance to bortezomib in RPMI-8226 cells; type: cell-based; conditions: bortezomib 0.2-0.4 ng/ml + 0.5 μmol/L chlorpromazine (FIG. 5a)
Description: The cell line RPMI-8226 (DMSZ 402) is a “multiple myeloma” cell line and was chosen because bortezomib is employed as a standard therapy for multiple myeloma. RPMI-8226 cells respond to bortezomib, express HSP27 and develop resistance to Velcade. RPMI-8226 cells were seeded at a cell count of 100,000 cells/ml in each case and regularly passaged. […] In contrast, for RPMI 8226 cells that were treated with 30 μmol/L BVDU, a final cell count of 160,000 cells/ml was detected whereas the final cell count for the culture without the addition of an HSP27 inhibitor amounted to 350,000 cells/ml. As a control, RPMI 8226 cells were treated with the respective test substances alone, FIG. 4b.

HSP27 [2] = target: T1, HSP27; assay: Capillary electrophoresis of heat-denatured citrate synthase protein precipitates; type: biochemical; conditions: for Efficacy compared with BVDU: 10 μmol/L vs 750 μmol/L BVDU; for Rel. quantity of protein prec. CS: 10 μmol/L, 43° C. for 120 minutes
Description: (§1) Since the heat-denatured protein aggregates of the citrate synthase from Example 1 are not water-soluble, these can be separated completely from the supernatant by means of centrifugation at room temperature at 16,000×g, 10 min. By using capillary electrophoresis, the compositions of the separated precipitates can be shown and quantified. The relative quantity of protein of precipitated citrate synthase serves as a measure of the efficacy of the test substances.
(§2) In each case, 481 nmol/L HSP27 and 1.44 μmol/L citrate synthase in 40 mmol/L HEPES buffer, pH 7.4, were employed. The relative quantity of protein of the precipitated citrate synthase in each case was normalized using a defined quantity of BSA as internal standard. The relative quantity of protein that precipitated when using 750 μmol/L BVDU was set at 1. The other test substances (2 representatives of phenothiazine derivatives of general formula (V), 2 representatives of purine derivatives of formula (I) or (II)) were each employed at a concentration of 10 μmol/L.
as §1, with “Example 2” for “Example 1”
as §2, with “nM” for “nmol/L”, “thymine” for “purine”, “were” for “were each”, “μmol/L in each case.” for “μmol/L.”
Otherwise, the experiments were performed as described above: […]

T1 sequence (P04792 whole entry): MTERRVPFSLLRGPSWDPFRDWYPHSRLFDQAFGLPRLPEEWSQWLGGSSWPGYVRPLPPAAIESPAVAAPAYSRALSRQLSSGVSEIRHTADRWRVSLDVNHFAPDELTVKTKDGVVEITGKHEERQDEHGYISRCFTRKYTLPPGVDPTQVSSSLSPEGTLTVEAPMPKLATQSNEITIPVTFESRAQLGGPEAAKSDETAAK

- affinity for interaction with HSP27 (HSP27 [1]): only a low affinity
- Efficacy compared with BVDU (HSP27 [2]; 43° C. for 120 minutes (Table 1)): 79.5 x
- Efficacy compared with BVDU (HSP27 [2]; 43° C. for 120 minutes (Table 2)): 79.5 x
- Rel. quantity of protein prec. CS (HSP27 [2]; relative to 750 μmol/L BVDU = 1 (Table 1)): 1.06
- Rel. quantity of protein prec. CS (HSP27 [2]; relative to 750 μmol/L BVDU = 1 (Table 2)): 1.06
SMILES: CN(C)CCCN1c2ccccc2Sc2ccc(Cl)cc21 [Chlorpromazine, reference compound]
- development of resistance to the cytostatic agent bortezomib (RPMI-8226 cells): significantly inhibited
- living cells at the end of the experiment (RPMI-8226 cells; without HSP27 inhibitor 350,000 cells/ml): 70,000 living cells per ml medium
